Literature values in patent publication US20100254946A1, “MAINTENANCE OF HAIR GROWTH AND TREATMENT OF HAIR-LOSS” (LIFE & BRAIN GMBH, priority 2007, published 2010).
Entries after “also recorded” stand apart in the source; their conditions may differ.

Legend:
[1] = molecular target: T1, P2Y5 receptor (Homo sapiens, UniProt P43657)
T1 sequence (P43657 1-344): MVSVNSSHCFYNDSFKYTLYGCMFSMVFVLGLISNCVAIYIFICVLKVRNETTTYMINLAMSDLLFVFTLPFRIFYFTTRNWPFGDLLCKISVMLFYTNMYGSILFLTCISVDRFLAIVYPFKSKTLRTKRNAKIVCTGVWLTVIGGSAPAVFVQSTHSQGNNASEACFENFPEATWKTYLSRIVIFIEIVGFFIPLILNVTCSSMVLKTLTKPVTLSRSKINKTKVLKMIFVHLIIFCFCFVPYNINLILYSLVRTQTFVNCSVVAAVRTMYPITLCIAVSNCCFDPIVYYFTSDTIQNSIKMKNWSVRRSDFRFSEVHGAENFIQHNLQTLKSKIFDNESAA

[2] = molecular target: T2, P2Y5 mutant p.Lys125AsnfsX37 (Homo sapiens, UniProt P43657); details: P2Y5 mutant p.Lys125AsnfsX37, LPA used as ligand
T2 construct: premature termination of translation of the P2Y5 receptor protein (p.Lys125AsnfsX37; expressed in transfected cells; vector pcDNA5/FRT/V5-His), transiently transfected with pCRE-luc
T2 sequence (P43657 with tags, fused parts or gaps): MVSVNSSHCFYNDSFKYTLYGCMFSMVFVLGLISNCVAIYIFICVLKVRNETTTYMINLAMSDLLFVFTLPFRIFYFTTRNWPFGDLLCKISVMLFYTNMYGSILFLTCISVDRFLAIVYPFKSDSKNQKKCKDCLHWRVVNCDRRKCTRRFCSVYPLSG

[3] = tested on: hair growth; details: mouse model, previously shown

Question: With `CCCCCCCC/C=C\CCCCCCCC(=O)OC[C@@H](O)COP(=O)(O)O` [LPA, oleoyl-L-alpha-lysophosphatidic acid] as the compound, how does the “ligand for the P2Y5 receptor” value [1] read?
Answer: is a ligand of the P2Y5 receptor; also recorded: is a ligand for the P2Y5 receptor

Question: And the “activation of a CRE luciferase reporter gene” value [2]?
Answer: not capable of activating a CRE luciferase reporter gene

Question: What about the “stimulation of hair growth” value [3] of the same compound?
Answer: stimulate hair growth in vivo
